Laboratory results from patent US20110275559A1, “Long-Acting Y2 and/or Y4 Receptor Agonists” (Novo Nordisk A/S, priority 2008, published 2011).
*1 amine or outer side, *2 acyl side, *3 side chain or, on linkers, in order; H or OH if unused. Where a SMILES comes first, the peptide text is derived from it. Where no end group is shown, it is not given here. Side-chain parts run from the residue outwards. The star is where a group is joined. C20 diacid = O=C(O)CCCCCCCCCCCCCCCCCCC(=O)*; γGlu = O=C(O)[C@H](CCC(=O)[*:2])N[*:1]; Trx = NC[C@H]1CC[C@H](C(=O)O)CC1; AEEA = NCCOCCOCC(=O)O

How the values were obtained:
[1] = target: T1, Y4 receptor (Homo sapiens, UniProt P50391); test: Y4 receptor ACTOne based FLIPR assay (cAMP biosensor); format: cell-based
T1 construct: host or cells: ACTOne HEK-293 cells
Source text: (§1) ACTOne™ is an easily scaleable cAMP biosensor HTS platform for measurement of Gs and Gi coupled 7™ receptor signalling from BD Biosciences (San Jose, Calif.). The cells express a biosensor developed around a modified rat olfactory cyclic nucleotide gated (CNG) calcium channel—a fairly non-discriminatory ion channel that responds to cAMP and cGMP. The CNG has been engineered to be cAMP selective and thus function as a cAMP responsive biosensor that signals through calcium or membrane potential responsive dyes. Y2 or Y4 receptor expressing ACTOne HEK-293 cells are obtained from BD Biosciences. The cells are loaded with a calcium responsive dye that only distributes in the cytoplasm. Probenecid, an inhibitor of the organic anion transporter is added to prevent the dye from leaving the cell. A phosphodiesterase inhibitor is added to prevent formatted cAMP from being degraded. Isoproterenol (an β1/β2 agonist) is added to activate the adenylate cyclase. When an Y2 or Y4 receptor agonist is added, the adenylate cyclase is inactivated. The decreased calcium concentration in the cytoplasm is then detected as an increase in fluorescence. Together with the test substance, Isoproterenol at a concentration matching EC80, is added to all wells. • The cells are plated out in Greiner 384-well plates. […] The plates are covered with tinfoil to avoid light (the dye can be excited by the daylight, which results in higher baseline and variation). • The FLIPR (FLIPRtetra from Molecular Devices, CA, USA) adds 1 μl sample and 1 μl isoproterenol (0.05 μM final concentration) at the same time. • The fluorescence signal from the wells is measured 330 seconds after sample addition on the FLIPR.

[2] = target: T2, Y2 receptor (Homo sapiens, UniProt P49146); test: Y2 receptor ACTOne based FLIPR assay (cAMP biosensor); format: cell-based; conditions: Table 2, PP analogues; ACTOne HEK-293 cells; read-out: Y2 cAMP EC50
T2 construct: host or cells: ACTOne HEK-293 cells
T2 sequence (P49146 1-381): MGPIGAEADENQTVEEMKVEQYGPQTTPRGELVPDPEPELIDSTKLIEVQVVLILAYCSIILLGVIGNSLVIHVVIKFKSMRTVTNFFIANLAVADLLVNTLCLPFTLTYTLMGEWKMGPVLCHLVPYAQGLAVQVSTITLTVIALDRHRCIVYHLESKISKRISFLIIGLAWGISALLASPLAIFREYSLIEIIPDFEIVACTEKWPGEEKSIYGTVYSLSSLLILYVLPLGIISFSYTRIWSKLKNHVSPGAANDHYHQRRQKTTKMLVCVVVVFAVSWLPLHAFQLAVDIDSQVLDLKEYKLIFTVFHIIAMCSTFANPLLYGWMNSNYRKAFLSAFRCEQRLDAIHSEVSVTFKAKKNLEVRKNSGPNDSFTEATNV
Source text: as §1

[3] = in vivo; conditions: Göttingen, minipig, iv
How it was run: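 Catheterised mini-pigs received compound i.v. at 10 nmol/kg in pH 4.0 phosphate/NaCl/tween vehicle, or alternatively i.v. or s.c. at 1–30 nmol/kg in pH 8.0 K2HPO4/tween. Stabilised plasma was sampled up to 13 days and assayed by LC-MS (LLOQ 2 nM). Half-life came from non-compartmental analysis of individual animal profiles.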

T1 sequence (P50391 whole entry): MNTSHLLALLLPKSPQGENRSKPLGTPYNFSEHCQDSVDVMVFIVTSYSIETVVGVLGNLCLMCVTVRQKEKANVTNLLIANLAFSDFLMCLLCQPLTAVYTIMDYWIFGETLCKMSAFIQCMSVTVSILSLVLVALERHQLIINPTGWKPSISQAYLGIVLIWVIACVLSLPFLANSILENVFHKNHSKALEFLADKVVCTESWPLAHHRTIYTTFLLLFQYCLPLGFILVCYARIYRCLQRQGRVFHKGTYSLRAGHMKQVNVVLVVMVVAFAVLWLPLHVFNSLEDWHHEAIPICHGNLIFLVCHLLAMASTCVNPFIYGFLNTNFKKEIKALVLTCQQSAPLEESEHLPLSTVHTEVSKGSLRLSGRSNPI

Row | Compound | EC50 [1] | EC50 [2] | half-life ([3]; 13.5 nmol/kg) | half-life ([3]; 50 nmol/kg)
1 | CC[C@H](C)[C@H](NC(=O)[C@H](Cc1ccc(O)cc1)NC(=O)[C@H](CCCNC(=N)N)NC(=O)[C@H](CCCNC(=N)N)NC(=O)[C@H](CC(C)C)NC(=O)[C@H](CC(=O)O)NC(=O)[C@H](C)NC(=O)[C@H](C)NC(=O)[C@H](Cc1ccc(O)cc1)NC(=O)[C@H](CCC(N)=O)NC(=O)[C@H](C)NC(=O)[C@H](CC(C)C)NC(=O)[C@H](CCC(N)=O)NC(=O)[C@H](CCC(=O)O)NC(=O)[C@@H]1CCCN1C(=O)[C@H](CCCCNC(=O)COCCOCCNC(=O)COCCOCCNC(=O)CC[C@H](NC(=O)[C@H]1CC[C@H](CNC(=O)CCCCCCCCCCCCCCCCCCC(=O)O)CC1)C(=O)O)NC(=O)[C@H](C)NC(=O)[C@H](CC(=O)O)NC(=O)[C@H](CC(N)=O)NC(=O)CNC(=O)[C@@H]1CCCN1C(=O)[C@H](Cc1ccc(O)cc1)NC(=O)[C@@H](NC(=O)[C@@H]1CCCN1C(=O)[C@H](CCC(=O)O)NC(=O)[C@H](CC(C)C)NC(=O)[C@@H]1CCCN1C(=O)[C@H](C)N)C(C)C)C(=O)N[C@@H](CC(N)=O)C(=O)N[C@@H](CC(C)C)C(=O)N[C@H](C(=O)N[C@H](C(=O)N[C@@H](CCCNC(=N)N)C(=O)N1CCC[C@H]1C(=O)N[C@@H](CCCNC(=N)N)C(=O)N[C@@H](Cc1ccc(O)cc1)C(N)=O)[C@@H](C)O)C(C)C [SEQ ID NO: 14, N-epsilon13-[2-(2-{2-[2-(2-{2-[(S)-4-Carboxy-4-({trans-4-[(19-carboxynonadecanoylamino)methyl]cyclohexanecarbonyl}amino)butyrylamino]-eth-oxy}ethoxy)acetylamino]ethoxy}ethoxy)acetyl][Asn10,Asp11,Lys13,Leu17,Leu30,Val31]hPP(1-36)] (H-APLEPVYPGNDAK([AEEA-AEEA-γGlu-Trx-C20 diacid])PEQLAQYAADLRRYINLVTRPRY-NH2; N-terminus and C-terminus assumed) | 18 nM | – | – | –
2 | CC(C)C[C@H](NC(=O)[C@H](CCC(N)=O)NC(=O)[C@H](CCC(=O)O)NC(=O)[C@@H]1CCCN1C(=O)[C@H](CCCCNC(=O)COCCOCCNC(=O)COCCOCCNC(=O)CC[C@H](NC(=O)[C@H]1CC[C@H](CNC(=O)CCCCCCCCCCCCCCCCCCC(=O)O)CC1)C(=O)O)NC(=O)[C@H](C)NC(=O)[C@H](CC(N)=O)NC(=O)[C@H](CC(=O)O)NC(=O)CNC(=O)[C@@H]1CCCN1C(=O)[C@H](Cc1ccc(O)cc1)NC(=O)[C@@H](NC(=O)[C@@H]1CCCN1C(=O)[C@H](CCC(=O)O)NC(=O)[C@H](CC(C)C)NC(=O)[C@@H]1CCCN1C(=O)[C@H](C)N)C(C)C)C(=O)N[C@@H](C)C(=O)N[C@@H](CCC(N)=O)C(=O)N[C@@H](Cc1ccc(O)cc1)C(=O)N[C@@H](C)C(=O)N[C@@H](C)C(=O)N[C@@H](CC(=O)O)C(=O)N[C@@H](CC(C)C)C(=O)N[C@@H](CCCNC(=N)N)C(=O)N[C@@H](CCCNC(=N)N)C(=O)N[C@@H](Cc1ccc(O)cc1)C(=O)N[C@@H](CC(C)C)C(=O)N[C@@H](CC(N)=O)C(=O)N[C@H](C(=O)N[C@@H](CC(C)C)C(=O)N[C@H](C(=O)N[C@@H](CCCNC(=N)N)C(=O)N[C@@H](CCC(N)=O)C(=O)N[C@@H](CCCNC(=N)N)C(=O)N[C@@H](Cc1ccc(O)cc1)C(N)=O)[C@@H](C)O)C(C)C [SEQ ID NO: 15, N-epsilon13-[2-(2-{2-[2-(2-{2-[(S)-4-Carboxy-4-({trans-4-[(19-carboxynonadecanoylamino)methyl]cyclohexanecarbonyl}amino)butyrylamino]-eth-oxy}ethoxy)acetylamino]ethoxy}ethoxy)acetyl][Lys13,Leu17,Leu28,Val30,Gln34]hPP(1-36)] (H-APLEPVYPGDNAK([AEEA-AEEA-γGlu-Trx-C20 diacid])PEQLAQYAADLRRYLNVLTRQRY-NH2; N-terminus and C-terminus assumed) | 7 nM | – | – | –
3 | CC[C@H](C)[C@H](NC(=O)[C@H](Cc1ccc(O)cc1)NC(=O)[C@H](CCCNC(=N)N)NC(=O)[C@H](CCCNC(=N)N)NC(=O)[C@H](CC(C)C)NC(=O)[C@H](CC(=O)O)NC(=O)[C@H](C)NC(=O)[C@H](C)NC(=O)[C@H](Cc1ccc(O)cc1)NC(=O)[C@H](CCC(N)=O)NC(=O)[C@H](C)NC(=O)[C@H](CC(C)C)NC(=O)[C@H](CCC(N)=O)NC(=O)[C@H](CCC(=O)O)NC(=O)[C@@H]1CCCN1C(=O)[C@H](CCCCNC(=O)COCCOCCNC(=O)COCCOCCNC(=O)CC[C@H](NC(=O)[C@H]1CC[C@H](CNC(=O)CCCCCCCCCCCCCCCCCCC(=O)O)CC1)C(=O)O)NC(=O)[C@H](C)NC(=O)[C@H](CC(N)=O)NC(=O)[C@H](CC(=O)O)NC(=O)CNC(=O)[C@@H]1CCCN1C(=O)[C@H](Cc1ccc(O)cc1)NC(=O)[C@@H](NC(=O)[C@@H]1CCCN1C(=O)[C@H](CCC(=O)O)NC(=O)[C@H](CC(C)C)NC(=O)[C@@H]1CCCN1C(=O)[C@H](C)N)C(C)C)C(=O)N[C@@H](CC(N)=O)C(=O)N[C@@H](CC(C)C)C(=O)N[C@@H](CC(C)C)C(=O)N[C@H](C(=O)N[C@@H](CCCNC(=N)N)C(=O)N[C@@H](CCC(N)=O)C(=O)N[C@@H](CCCNC(=N)N)C(=O)N[C@@H](Cc1ccc(O)cc1)C(N)=O)[C@@H](C)O [SEQ ID NO: 4] (H-APLEPVYPGDNAK([AEEA-AEEA-γGlu-Trx-C20 diacid])PEQLAQYAADLRRYINLLTRQRY-NH2; N-terminus and C-terminus assumed) | 18 nM | – | – | –
4 | CC[C@H](C)[C@H](NC(=O)[C@H](Cc1ccc(O)cc1)NC(=O)[C@H](CCCNC(=N)N)NC(=O)[C@H](CCCNC(=N)N)NC(=O)[C@H](CC(C)C)NC(=O)[C@H](CC(=O)O)NC(=O)[C@H](C)NC(=O)[C@H](C)NC(=O)[C@H](Cc1ccc(O)cc1)NC(=O)[C@H](CCC(N)=O)NC(=O)[C@H](CCCCNC(=O)COCCOCCNC(=O)COCCOCCNC(=O)CC[C@H](NC(=O)[C@H]1CC[C@H](CNC(=O)CCCCCCCCCCCCCCCCCCC(=O)O)CC1)C(=O)O)NC(=O)[C@H](CC(C)C)NC(=O)[C@H](CCC(N)=O)NC(=O)[C@H](CCC(=O)O)NC(=O)[C@@H]1CCCN1C(=O)[C@@H](NC(=O)[C@H](C)NC(=O)[C@H](CC(N)=O)NC(=O)[C@H](CC(=O)O)NC(=O)CNC(=O)[C@@H]1CCCN1C(=O)[C@H](Cc1ccc(O)cc1)NC(=O)[C@@H](NC(=O)[C@@H]1CCCN1C(=O)[C@H](CCC(=O)O)NC(=O)[C@H](CC(C)C)NC(=O)[C@@H]1CCCN1)C(C)C)[C@@H](C)O)C(=O)N[C@@H](CC(N)=O)C(=O)N[C@@H](CC(C)C)C(=O)N[C@@H](CC(C)C)C(=O)N[C@H](C(=O)N[C@@H](CCCNC(=N)N)C(=O)N1CCC[C@H]1C(=O)N[C@@H](CCCNC(=N)N)C(=O)N[C@@H](Cc1ccc(O)cc1)C(N)=O)[C@@H](C)O [SEQ ID NO: 43, N-epsilon18-[2-(2-{2-[2-(2-{2-[(S)-4-Carboxy-4-({trans-4-[(19-carboxynonadecanoylamino)methyl]cyclohexanecarbonyl}amino)butyrylamino]-ethoxy}ethoxy)acetylamino]ethoxy}ethoxy)acetyl][Leu17,Lys18,Leu30]hPP2-36] (H-PLEPVYPGDNATPEQLK([AEEA-AEEA-γGlu-Trx-C20 diacid])QYAADLRRYINLLTRPRY-NH2; N-terminus and C-terminus assumed) | – | > 1000 nM | 3300 min | –
5 | PLEPVYPGDNATPEQLAQYAADLRRYINLLTRPRY-NH2 (C-terminus assumed) [SEQ ID NO: 73, [Leu17,Leu30]hPP2-36, reference compound] | – | > 1000 nM | – | 33 min
